The text below walks through data of ChEMBL document CHEMBL1201862, “PubChem BioAssay data set” (2004).

The structures appear in SMILES notation.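 48-hour exposure; five concentrations; linearly interpolated endpoints. GI50 marks 50% less growth.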 The source made the active and inactive calls. No stated cut-off is given here; in the data, active = GI50 up to about 1.1 µM and inactive = higher.

Some test systems named below: SF-268; OVCAR-5; DU-145; UACC-257; OVCAR-8; SK-MEL-5; NCI-H460; U-251; UACC-62; SK-MEL-28; BT-549; SN12C; SNB-19; HCT-116; SW-620; K562; EKVX; NCI/ADR-RES; NCI-H522; SF-539.
Holding throughout (experiment): inhibition of tumour cell growth, NCI panel, 48 h

With `CC(C)Cc1cnc(CC(C)C)c(=O)[nH]1`, the GI50 in the test on SF-268, with OVCAR-5, with DU-145, with UACC-257, with OVCAR-8 and with SK-MEL-5 was > 100 µM (inactive) throughout. Also, the GI50 in the test with NCI-H460, with U-251, with UACC-62, in the test on SK-MEL-28, in the test on BT-549 and in the test with SN12C was > 100 µM (inactive) in each case. The GI50 with SNB-19, in the test with HCT-116, with SW-620, in the test on K562 and in the test on EKVX was > 100 µM (inactive) throughout.

Turning to `Clc1ccc(NCNC2Nc3ccccc3N2)cc1Cl`, the GI50 is 28.4 µM (inactive) in the test with SF-268; > 100 µM (inactive) in the test with OVCAR-5; > 100 µM (inactive) with DU-145; > 100 µM (inactive) with UACC-257; 13.1 µM (inactive) in the test on OVCAR-8; 17.1 µM (inactive) in the test on SK-MEL-5. The GI50 in the test on NCI/ADR-RES was 83.4 µM (inactive); in the test with NCI-H460 it was 24.2 µM (inactive); in the test with U-251, 52.5 µM (inactive); with NCI-H522 it was 22.4 µM (inactive); with UACC-62, 2.26 µM (inactive); with SK-MEL-28 it was 70.5 µM (inactive). The GI50 in the test with SF-539 was 48.5 µM (inactive); in the test with SN12C it was 22.6 µM (inactive); with SNB-19 it was > 100 µM (inactive); in the test with HCT-116 it was 36.7 µM (inactive); with SW-620, 27.6 µM (inactive); in the test on K562, 12.4 µM (inactive). Moreover, in the test on EKVX, the GI50 is 63.7 µM (inactive).

`CCN(CC)C(=O)C1=C(C)NC(C)=C(C(=O)N(CC)CC)C1`: the GI50 in the test with SF-268 is 53 µM (inactive); in the test on OVCAR-5, > 100 µM (inactive); in the test on DU-145 it was > 100 µM (inactive); in the test with UACC-257, > 100 µM (inactive); with SK-MEL-5 it was > 100 µM (inactive); in the test on NCI-H460, > 100 µM (inactive). The GI50 in the test with U-251, with NCI-H522, with UACC-62, with SK-MEL-28, with SF-539 and in the test on SN12C was > 100 µM (inactive) throughout. Further, the GI50 in the test on SNB-19 was > 100 µM (inactive); in the test on HCT-116 it was > 100 µM (inactive); in the test with SW-620, > 100 µM (inactive); in the test on K562, 41.4 µM (inactive); with EKVX, > 100 µM (inactive).

As for `COCOCC1CCCN1CN1CCC[C@H]1COCOC` (stereo partly drawn), the GI50 with SF-268 is > 100 µM (inactive); in the test on OVCAR-5, > 100 µM (inactive); in the test with DU-145 it was 42.8 µM (inactive); in the test on UACC-257, > 100 µM (inactive); with OVCAR-8, > 100 µM (inactive); with SK-MEL-5 it was > 100 µM (inactive). Moreover, the GI50 was > 100 µM (inactive) in the test on NCI/ADR-RES; 60.5 µM (inactive) in the test on NCI-H460; > 100 µM (inactive) in the test with U-251; > 100 µM (inactive) in the test with NCI-H522; 36.6 µM (inactive) in the test with UACC-62; > 100 µM (inactive) in the test with SK-MEL-28. The GI50 with SN12C is > 100 µM (inactive); in the test on SNB-19, > 100 µM (inactive); with HCT-116 it was 26.9 µM (inactive); in the test on SW-620 it was 33.2 µM (inactive); with K562, > 100 µM (inactive); with EKVX it was > 100 µM (inactive).

With `COc1cc2c(c(OC)c1OC)-c1ccc(SC)c(=O)cc1C(CO)C2` (stereo not drawn), the GI50 was 0.146 µM (active) in the test with SF-268; 0.431 µM (active) with OVCAR-5; 0.0578 µM (active) in the test with UACC-257; 0.188 µM (active) in the test on OVCAR-8; 0.172 µM (active) with SK-MEL-5; 0.184 µM (active) in the test on NCI-H460. For the same compound, the GI50 in the test on U-251 was 0.246 µM (active); in the test with NCI-H522, 0.0527 µM (active); in the test with UACC-62, 0.0414 µM (active); with SK-MEL-28 it was 0.0735 µM (active); in the test on SF-539, 0.143 µM (active); with SN12C, 0.335 µM (active). Moreover, the GI50 was 0.802 µM (active) in the test with SNB-19; 0.12 µM (active) with HCT-116; 0.167 µM (active) in the test on SW-620; 0.0575 µM (active) with K562; 0.603 µM (active) in the test on EKVX.

Turning to `CC1(C)C=[N+]([O-])C(C)(C)N1`, the GI50 with SF-268, with OVCAR-5, with DU-145, in the test with UACC-257, in the test with OVCAR-8 and in the test on SK-MEL-5 was > 100 µM (inactive) throughout. The GI50 in the test with NCI/ADR-RES, in the test with NCI-H460, with U-251, in the test on UACC-62, in the test with SK-MEL-28 and in the test with SF-539 was > 100 µM (inactive) in each case. In addition, the GI50 in the test with SN12C, in the test on SNB-19, in the test with HCT-116, with SW-620, in the test on K562 and in the test on EKVX was > 100 µM (inactive) in each case.

For the compound `CCCCCC1CC=CC(NC(=O)OCc2ccccc2)C1/C=C/CCCC1OCCO1` (stereo not drawn), the GI50 with SF-268 was > 42.8 µM (inactive); with OVCAR-5, > 53.8 µM (inactive); in the test with UACC-257, 50.7 µM (inactive); in the test on OVCAR-8, 73.6 µM (inactive); in the test on SK-MEL-5 it was 17.9 µM (inactive); in the test on NCI-H460, 51.6 µM (inactive). The GI50 is 73.5 µM (inactive) in the test on U-251; 20.8 µM (inactive) with NCI-H522; > 93.5 µM (inactive) with UACC-62; > 36.5 µM (inactive) with SK-MEL-28; > 100 µM (inactive) in the test with SF-539; > 100 µM (inactive) in the test with SN12C. Also, the GI50 is 74.1 µM (inactive) in the test with SNB-19; 35.8 µM (inactive) with HCT-116; > 100 µM (inactive) with SW-620; 24.9 µM (inactive) with K562; 96.6 µM (inactive) in the test with EKVX.

On to `O=CC(O)C(O)C(O)COc1cc(CO)cc2c1C(=O)c1ccccc1C2=O` (stereo not drawn), for which the GI50 was > 100 µM (inactive) with SF-268; > 100 µM (inactive) in the test with OVCAR-5; > 100 µM (inactive) with UACC-257; > 100 µM (inactive) in the test on OVCAR-8; 79.4 µM (inactive) in the test on SK-MEL-5; > 87.3 µM (inactive) with NCI-H460. For the same compound, the GI50 in the test on U-251 is > 100 µM (inactive); with NCI-H522 it was > 100 µM (inactive); with UACC-62, > 95.1 µM (inactive); in the test with SK-MEL-28, > 100 µM (inactive); in the test with SF-539 it was > 100 µM (inactive); in the test with SN12C, > 100 µM (inactive). The GI50 in the test with SNB-19, in the test with HCT-116, in the test with SW-620, in the test with K562 and in the test on EKVX was > 100 µM (inactive) throughout.

As to `C/C(=N\NC(=O)c1ccccc1O)C1=CNc2ccccc2S1`, the GI50 in the test on SF-268 was 3.61 µM (inactive); in the test on OVCAR-5, 3.18 µM (inactive); with UACC-257 it was 3.1 µM (inactive); in the test on OVCAR-8 it was 3.7 µM (inactive); in the test with SK-MEL-5, 6.89 µM (inactive); with NCI-H460 it was 4 µM (inactive). The GI50 in the test with U-251 was 5.87 µM (inactive); in the test on NCI-H522 it was 3.34 µM (inactive); in the test with UACC-62, 2.44 µM (inactive); with SK-MEL-28, 9.48 µM (inactive); in the test with SF-539 it was 2.4 µM (inactive); in the test on SN12C, 4.05 µM (inactive). The GI50 in the test on SNB-19 was 5.56 µM (inactive); in the test on HCT-116, 3.66 µM (inactive); in the test with SW-620, 3.65 µM (inactive); with K562 it was 3.75 µM (inactive); in the test on EKVX, 15.3 µM (inactive).

Take `COc1ccccc1-n1cnc2c1=NC(C)(C)NC=2C(N)=O`: the GI50 with SF-268, in the test with OVCAR-5, with DU-145, in the test with UACC-257, in the test on OVCAR-8 and in the test on SK-MEL-5 was > 100 µM (inactive) throughout. Also, the GI50 in the test on NCI/ADR-RES, in the test on NCI-H460, in the test with U-251, in the test with NCI-H522, in the test on UACC-62 and in the test with SK-MEL-28 was > 100 µM (inactive) in each case. For the same compound, the GI50 in the test on SF-539, with SN12C, with SNB-19, in the test on HCT-116, with SW-620 and in the test on K562 was > 100 µM (inactive) in each case. Also, the GI50 with EKVX is > 100 µM (inactive).

`COc1ccc(N2C(=O)c3c(c4[nH]c5ccccc5c4c4ccc(C(C)(C)C)cc34)C2=O)cc1`: the GI50 with SF-268 is 29.2 µM (inactive); with OVCAR-5, > 100 µM (inactive); in the test on UACC-257 it was > 100 µM (inactive); in the test with OVCAR-8, 22.5 µM (inactive); in the test on SK-MEL-5, > 100 µM (inactive); in the test with NCI-H460 it was 40.4 µM (inactive). Also, the GI50 is 22.8 µM (inactive) with U-251; 33.2 µM (inactive) with NCI-H522; 20.1 µM (inactive) in the test with UACC-62; 89.1 µM (inactive) in the test with SK-MEL-28; > 100 µM (inactive) in the test on SF-539; 64 µM (inactive) in the test with SN12C. In addition, the GI50 was 54.2 µM (inactive) in the test on SNB-19; 69.7 µM (inactive) in the test with HCT-116; 61.8 µM (inactive) in the test on SW-620; > 100 µM (inactive) in the test on K562; 64 µM (inactive) in the test on EKVX.
